{"source": "patent US20040052799A1", "about": "“Nucleic acid and amino acid sequences relating to Helicobacter pylori for diagnostics and therapeutics” (Astra Aktiebolag, priority 1996, published 2004)", "key": {"[1]": {"assay": "Stability of ASA in solution", "type": "physicochemical", "description": "ASA in 4 N HCl was prepared daily for use in Asd assays by partial neutralization with addition of 1.0 equivalent of […], with a resulting pH=1-2. The amount of ASA was determined enzymatically by complete reaction in the presence of excess NADP^+and phosphate. […] These observations are consistent with previous reports on the stability of ASA (Karsten et al., 1991, Biochim. Biophys. Acta 1077, 209-219). Assays were performed in the following buffer: 200 mM HEPES, 0.3 mM NADP^+, 30 mM NaH2PO4, 1.0 mM DTT, pH 7.5 or pH 8.0. ASA was used in the assay at concentrations of 5-165 μM by diluting the partially-neutralized ASA stock into the assay 10-200 fold, leading to a decrease in pH of 0.1 units or less. Reaction was initiated with the addition of enzyme to a final concentration of 3.5-70 nM."}, "[2]": {"target": "T1, H. pylori glutamate racemase (Helicobacter pylori, UniProt Q9ZLT0)", "T1 construct": "made in house; host or cells: E. coli BL21(DE3) carrying pET-23-murI and pACYC-groE (GroES/GroEL co-expressed)", "T1 sequence (Q9ZLT0 whole entry)": "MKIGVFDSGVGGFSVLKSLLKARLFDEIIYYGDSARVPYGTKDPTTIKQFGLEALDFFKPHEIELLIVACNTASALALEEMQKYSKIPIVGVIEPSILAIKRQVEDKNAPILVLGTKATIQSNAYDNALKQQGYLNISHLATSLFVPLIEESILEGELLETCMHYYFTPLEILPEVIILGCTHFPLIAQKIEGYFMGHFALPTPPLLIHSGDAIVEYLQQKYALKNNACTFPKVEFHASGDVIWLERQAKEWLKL", "assay": "Inactivation of glutamate racemase by L-serine-O-sulfate, single enzyme coupled assay", "type": "biochemical", "details": "20 mM L-serine-O-sulfate, different incubation times, FIG. 7", "description": "In this assay, the conversion of D-glutamic acid to L-glutamic acid is coupled to the conversion of L-glutamic acid and NAD^+by L-glutamate dehydrogenase to 2-oxoglutarate, ammonia. The production of NADH is measured as an increase of absorbance at 340 nm (the reduction of NAD^+ to NADH) at 37° C. The standard assay mixture (adapted from Choi, S- Y, Esaki, N., Yoshimura, T., and Soda, K., 1991, Protein Expression and Purification 2, 90-93) contained 10 mM Tris-HCl, pH 7.5, 5 mM NAD+, 5 Units/ml L-glutamate dehydrogenase, varying concentrations of the substrate D-Glutamic Acid (0.063 mM to 250 mM), and the purified recombinant H. pylori enzyme glutamate racemase (1 μg to 50 μg). The reaction was started by the addition of either the substrate D-glutamic acid or the recombinant glutamate racemase after a preincubation at 37° C. for 5 minutes with all of the other assay ingredients. The change in absorbance at 340 nm was measured in a Spectra MAX 250. Initial velocities were derived from the initial slopes. […]\nThe H. pylori glutamate racemase was tested for inactivation with a sucuide inhibitor, L-serine-O sulfate, which is known to inhibit murI from E. coli. […] The initial velocity of purified recombinant H. pylroi murI protein was determined in the single enzyme coupled asssay following incubation with the inhibitor L-serine-O-sulfate (LSOS) at 20 mM for the times indicated on the x-axis. […]"}, "H. pylori (strain AH244)": {"tested_on": "H. pylori (strain AH244)", "type": "in vivo", "details": "BALB/c mice infected with strain AH244, 100 μg antigen + 10 μg CT orally, compared to control, FIGS. 3 and 4"}, "H. pylori Asd": {"target": "H. pylori Asd (Helicobacter pylori, UniProt Q9ZK28)", "sequence (Q9ZK28 whole entry)": "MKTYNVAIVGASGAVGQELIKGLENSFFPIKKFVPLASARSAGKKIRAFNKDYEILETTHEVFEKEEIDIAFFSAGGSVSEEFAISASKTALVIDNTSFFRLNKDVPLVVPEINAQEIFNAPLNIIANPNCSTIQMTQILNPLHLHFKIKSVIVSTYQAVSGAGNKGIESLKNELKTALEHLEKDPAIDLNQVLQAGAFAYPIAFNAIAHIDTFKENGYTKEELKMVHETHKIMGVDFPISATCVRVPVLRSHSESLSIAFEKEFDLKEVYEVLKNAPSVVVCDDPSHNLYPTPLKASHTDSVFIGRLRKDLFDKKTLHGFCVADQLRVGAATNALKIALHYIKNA", "assay": "Asd assay, reverse reaction, NADPH formation", "details": "read-out: Km for phosphate; pH 8.0", "description": "(§1) The enzymatic activity of purified His-tagged H. pylori Asd (SEQ ID NO: 6545) was characterized by assaying the reverse reaction of phosphorylation of L-aspartate-β-semialdehyde (ASA) to L-p-aspartyl phosphate, with concomitant reduction of NADP^+ to NADPH. The formation of NADPH was detected by its absorbance, 340 nm, or by its fluorescence, excitation =340 nm, emission 455 nm.\n(§2) ASA in 4 N HCl was prepared daily for use in Asd assays by partial neutralization with addition of 1.0 equivalent of […], with a resulting pH=1-2. The amount of ASA was determined enzymatically by complete reaction in the presence of excess NADP^+and phosphate. […] Assays were performed in the following buffer: 200 mM HEPES, 0.3 mM NADP^+, 30 mM NaH2PO4, 1.0 mM DTT, pH 7.5 or pH 8.0. ASA was used in the assay at concentrations of 5-165 μM by diluting the partially-neutralized ASA stock into the assay 10-200 fold, leading to a decrease in pH of 0.1 units or less. Reaction was initiated with the addition of enzyme to a final concentration of 3.5-70 nM."}, "E. coli Asd": {"target": "T2, E. coli Asd (Escherichia coli, UniProt P0A9Q9)", "T2 construct": "made in house; host or cells: E. coli HMS174 pLysS, pET28b", "T2 sequence (P0A9Q9 1-367)": "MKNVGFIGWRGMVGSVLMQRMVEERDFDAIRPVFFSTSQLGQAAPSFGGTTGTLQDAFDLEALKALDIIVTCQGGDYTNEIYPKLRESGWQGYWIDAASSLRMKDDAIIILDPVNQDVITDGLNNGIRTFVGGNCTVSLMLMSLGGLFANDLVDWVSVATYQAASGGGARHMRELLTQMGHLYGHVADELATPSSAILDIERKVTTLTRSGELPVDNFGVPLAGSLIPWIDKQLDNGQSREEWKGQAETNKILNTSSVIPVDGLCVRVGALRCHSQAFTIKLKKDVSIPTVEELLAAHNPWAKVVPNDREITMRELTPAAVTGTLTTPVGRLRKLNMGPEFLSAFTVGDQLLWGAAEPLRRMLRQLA", "assay": "Asd assay, reverse reaction, NADPH formation", "type": "biochemical", "details": "pH 7.5; read-out: Km for phosphate", "description": "as §1, §2"}}, "note": "Where two headings read alike, the source gives them in different places."}
{"compound": "N[C@@H](CC=O)C(=O)O", "note": "[ASA, L-aspartate-β-semialdehyde]", "values": [{"measurement": "half-life", "setting": "[1]; assay buffer, pH 7.7 (under assay conditions), read-out: t½ (converted)", "result": 5, "unit": "h"}, {"measurement": "time ASA found to be stable", "setting": "[1]; pH 1.4", "result": "up to 48 hours"}]}
{"compound": "N[C@@H](COS(=O)(=O)O)C(=O)O", "note": "[L-Serine-O-Sulfate]", "values": [{"measurement": "inactivation of glutamate racemase by the inhibitor (residual initial velocity)", "setting": "[2]", "result": "readily inactivated"}]}
{"compound": "lacZ: non-Helicobacter pylori control protein (β-galactosidase from E. coli) constructed with a hexa-HIS tag [reference compound]", "values": [{"measurement": "degree of colonization of the antrum", "setting": "H. pylori (strain AH244)", "result": "higher Helicobacter colonization"}, {"measurement": "reduction and/or eradication of the H. pylori infection (therapeutic immunization effect)", "setting": "H. pylori (strain AH244)", "result": "no eradication effect"}, {"measurement": "degree of colonization of the antrum", "setting": "H. pylori (strain AH244); listed as LacZ", "result": "highest colonization in the antrum"}]}
{"compound": "phosphate [reference compound]", "values": [{"measurement": "Km", "setting": "H. pylori Asd", "result": 2100, "unit": "µM"}, {"measurement": "Km", "setting": "E. coli Asd", "result": 1300, "unit": "µM"}]}
